Laboratory results taken from patent US4160829A, “Antibacterial 1,2,4-oxadiazolylacetamido cephalosporins” (Gist-Brocades N.V., priority 1972, dated 1979).

Assays:
Strep.haem A 1088 = assay: agar serial dilution test; type: cell-based, Streptococcus haemolyticus; settings: Streptococcus, A1088, 24 hours, 37° C., read-out: minimal inhibitory concentration (MIC)
Dipl.pneum. L 54 = assay: agar serial dilution test; type: cell-based, Diplococcus pneumoniae; settings: Streptococcus pneumoniae; agar serial dilution, 24 hours, 37° C.; read-out: minimal inhibitory concentration (MIC)
Prot.mirab. A 1200 [1] = assay: agar serial dilution test; type: cell-based, Proteus mirabilis; settings: Proteus mirabilis, 24 h, agar serial dilution, 24 hours, 37° C.; read-out: minimal inhibitory concentration (MIC)
Staph.aureus A 2000 [2] = assay: micro serial dilution test; type: cell-based, Staphylococcus aureus; settings: Staphylococcus aureus, A2000, 18 h, micro serial dilution (in brackets), about 18 hours, 30° C. or 37° C.; read-out: minimal inhibitory concentration (MIC)
Actinob.equ. T 3 = assay: agar serial dilution test; type: cell-based; settings: 24 hours, 37° C., read-out: minimal inhibitory concentration (MIC)
Strep. faec. L 80 = assay: agar serial dilution test; type: cell-based, Streptococcus faecalis; settings: Enterococcus faecalis; agar serial dilution, 24 hours, 37° C.; read-out: minimal inhibitory concentration (MIC)
Prot.mirab. H 3 = assay: agar serial dilution test; type: cell-based, Proteus mirabilis; settings: Proteus mirabilis; agar serial dilution, 24 hours, 37° C.; read-out: minimal inhibitory concentration (MIC)
[3] = blood and urine contents after intramuscular administration in rabbits; type: in vivo, rabbits "Nieuw Zeelander"; settings: rabbit, im, intramuscular 50 mg/kg
Protocol: (d) the blood and urine contents of the above-indicated compound G and of monosodium 7-[(3-carboxymethyl-1,2,4-oxadiazol-5-yl)acetamido]-3-acetoxymethyl-3-cephem-4-carboxylate (as prepared in example 35) were determined after intramuscular administration of these compounds in an aqueous solution in rabbits, as listed below:
test animals: rabbits "Nieuw Zeelander"
Each testgroup consisted of 3 rabbits.
Vehiculum: Physiol. saline solution
Bloodsamples were taken after 1/4--1/2--1--2--4 hours Urinesamples were taken after 1--3--6--24--27 hours (in practice only the secreted amounts after 6 and 24 hours were used).
Testorganisms: Bacillus subtilis ATCC 6633 and Bacillus callidolactis E 16.
The contents of the compounds in the samples were determined microbiologically.
(Only microbiologically detected concentrations, i.e. anti-bacterially active concentrations only have been indicated and determined in relation to the original administered compound).

[4] = tested on: Klebsiella pneumoniae A 265; assay: protection test; type: in vivo; settings: i.p.
Staph.aureus A 321 = assay: agar serial dilution test; type: cell-based, Staphylococcus aureus; settings: Staphylococcus aureus, A321, 24 h, agar serial dilution, 24 hours, 37° C.; read-out: minimal inhibitory concentration (MIC)
Sarc. lutea ATCC 9341 = assay: agar serial dilution test; type: cell-based; settings: Micrococcus luteus, ATCC9341, 24 hours, 37° C., read-out: minimal inhibitory concentration (MIC)
Esch.coli U 20 = assay: agar serial dilution test; type: cell-based, Escherichia coli; settings: Escherichia coli, U20; agar serial dilution, 24 hours, 37° C.; read-out: minimal inhibitory concentration (MIC)
Prot.morg. 2241 = assay: agar serial dilution test; type: cell-based; settings: 24 h, agar serial dilution, 24 hours, 37° C.; read-out: minimal inhibitory concentration (MIC)
Bruc. Suis A 2126 = assay: agar serial dilution test; type: cell-based; settings: Brucella suis, 24 h, read-out: minimal inhibitory concentration (MIC)
Staph.aureus A 2001 [5] = assay: micro serial dilution test; type: cell-based, Staphylococcus aureus; settings: Staphylococcus aureus, A2001, 18 h, micro serial dilution (in brackets), about 18 hours, 30° C. or 37° C.; read-out: minimal inhibitory concentration (MIC)
Staph.aureus A 355 = assay: agar serial dilution test; settings: Staphylococcus aureus, A355, 24 h, read-out: minimal inhibitory concentration (MIC), agar serial dilution, 24 hours, 37° C.; penicillinase-producing strain
Staph.aureus A 2000 [6] = assay: agar serial dilution test; type: cell-based, Staphylococcus aureus; settings: Staphylococcus aureus, A2000, 24 h, agar serial dilution, 24 hours, 37° C.; read-out: minimal inhibitory concentration (MIC)
Bac.Subt.ATCC 6633 = assay: agar serial dilution test; type: cell-based, Bacillus subtilis; settings: Bacillus subtilis, ATCC6633, 24 h, agar serial dilution, 24 hours, 37° C.; read-out: minimal inhibitory concentration (MIC)
Staph.aureus A 2001 [7] = assay: agar serial dilution test; type: cell-based, Staphylococcus aureus; settings: Staphylococcus aureus, A2001, 24 h, agar serial dilution, 24 hours, 37° C.; read-out: minimal inhibitory concentration (MIC)
Prot.mirab. L 93 = assay: agar serial dilution test; type: cell-based, Proteus mirabilis; settings: Proteus mirabilis; agar serial dilution, 24 hours, 37° C.; read-out: minimal inhibitory concentration (MIC)
Prot.mirab. A 1200 [8] = assay: micro serial dilution test; type: cell-based; settings: Proteus mirabilis; micro serial dilution (in brackets), about 18 hours, 30° C. or 37° C.; read-out: minimal inhibitory concentration (MIC)
Proteus mirabilis A 1200 = assay: protection test; type: in vivo; settings: s.c.
Kleb.pneum. A 809 = assay: agar serial dilution test; type: cell-based, Klebsiella pneumoniae; settings: Klebsiella pneumoniae; agar serial dilution, 24 hours, 37° C.; read-out: minimal inhibitory concentration (MIC)
Salm.typh. R 172 = assay: agar serial dilution test; type: cell-based; settings: 24 h, read-out: minimal inhibitory concentration (MIC)
Salm.dubl. P 43 = assay: agar serial dilution test; type: cell-based, Salmonella dublin; settings: Salmonella enterica; agar serial dilution, 24 hours, 37° C.; read-out: minimal inhibitory concentration (MIC)

For `Cc1noc(CC(=O)N[C@@H]2C(=O)N3C(C(=O)O)=C(CSc4nnnn4C)CS[C@H]23)n1` [Compound G, sodium-7[(3-methyl-1,2,4-oxadiazol-5-yl)-acetamido] 3 [1-methyl-tetrazol-5-yl-mercaptomethyl] 3-cephem-4-carboxylate], the MIC (Strep.haem A 1088) was 0.25 µg/mL, the MIC (Dipl.pneum. L 54) was 0.5 µg/mL and the MIC (Prot.mirab. A 1200 [1]) was 25 µg/mL. For the same compound, the MIC (Staph.aureus A 2000 [2]) was 0.6 µg/mL, the MIC (Actinob.equ. T 3) was 0.5 µg/mL and the MIC (Strep. faec. L 80) was 50 µg/mL. It also gave an MIC (Prot.mirab. H 3) of 25 µg/mL, a concentration at 0.5 h ([3]; serum, after 1/2 hr, read-out: Serumlevel) of 137000 ng/mL and a concentration at 0.25 h ([3]; serum, after 1/4 hr, read-out: Serumlevel) of 157000 ng/mL. For the same compound, the concentration at 1 h ([3]; serum, after 1 hr, read-out: Serumlevel) was 49000 ng/mL, the concentration at 2 h ([3]; serum, after 2 hr, read-out: Serumlevel) was 25000 ng/mL and the concentration at 4 h ([3]; serum, after 4 hr, read-out: Serumlevel) was 6700 ng/mL. For the same compound, the dose excreted at 6 h ([3]; urine, after 6 hr, read-out: Secretion of compound in urine in % of the administered dose) was 51.3%, the dose excreted at 24 h ([3]; urine, after 24 hr, read-out: Secretion of compound in urine in % of the administered dose) was 55.5% and the ED50 ([4]; Klebsiella pneumoniae, A265, ip, protection test) was 86 mg/kg. For the same compound, the Potency ratio ([4]; reference Cefalotin) was 1,09, the MIC (Staph.aureus A 321) was 0.25 µg/mL and the MIC (Sarc. lutea ATCC 9341) was 0.5 µg/mL. The MIC (Esch.coli U 20) was 0.75 µg/mL, the MIC (Prot.morg. 2241) was 100 µg/mL and the MIC (Bruc. Suis A 2126) was 1 µg/mL. For the same compound, the MIC (Staph.aureus A 2001 [5]) was 0.6 µg/mL, the MIC (Staph.aureus A 355) was 1 µg/mL and the MIC (Staph.aureus A 2000 [6]) was 0.75 µg/mL. It also gave an MIC (Bac.Subt.ATCC 6633) of 0.25 µg/mL, an MIC (Staph.aureus A 2001 [7]) of 0.5 µg/mL and an MIC (Prot.mirab. L 93) of 3 µg/mL. For the same compound, the MIC (Prot.mirab. A 1200 [8]) was 15 µg/mL, the ED50 (Proteus mirabilis A 1200; Proteus mirabilis, A1200, sc, protection test, read-out: ED50) was 8.7 mg/kg and the Potency ratio (Proteus mirabilis A 1200; reference Cefalotin) was 1,4. For the same compound, the MIC (Kleb.pneum. A 809) was 0.5 µg/mL, the MIC (Salm.typh. R 172) was 1.5 µg/mL and the MIC (Salm.dubl. P 43) was 1.5 µg/mL.
